In publication PMC4520264 (Organic & biomolecular chemistry, 2015):
Blank lines part the entries; values can stand above or below the molecule they belong to.

Key:
Assay type in all cases: binding
[1] = target: R1 (scFv fluorescence-activating protein, FAP); assay: fluorescence ligand depletion titration with […] R1; settings: read-out: TO
[2] = target: HL1.0.1-TO1 (scFv fluorescence-activating protein, FAP); assay: fluorescence ligand depletion titration with […] FAP; settings: read-out: TO1-2p
[3] = target: HL1.0.1-TO1 (scFv fluorescence-activating protein, FAP); assay: fluorescence; settings: read-out: TO1-2p-Cy5
[4] = target: R1 (scFv fluorescence-activating protein, FAP); assay: fluorescence; settings: read-out: Coumarin-TO

Kd [1]: 0.17 nM
Molecule: CN1/C(=C/c2cc[n+](C)c3ccccc23)Sc2ccccc21 [TO]

Kd [2]: 0.3 nM
Molecule: TO1-2p

Kd [3]: 12 nM
Molecule: TO1-2p-Cy5

Kd [4]: 1.1 nM
Molecule: coumarin-TO
